# “Also recorded” adds a separate entry of the source.
# Assays:
# [1] = system: moderate to severe plaque psoriasis; conditions: cited from earlier work
# [2] = system: LPS stimulated PBMCs; experiment: Viability of LPS stimulated PBMCs; format: cell-based, human; parameters: key: ↑: Induced; —: No change; ↓: Reduced
# [3] = system: LPS stimulated PBMCs; experiment: Cytokine production in LPS stimulated PBMCs; format: cell-based, human; parameters: key to IL-2 / IFNα2 / IFSNβ / IL-4 / IL-5 / IL-6 / IL-10 / IL-13 / IL-15 / IL-17 / IL-22 / IL-1β / IL-1ra / IL-23 / IL-12p40 / IL-12p70 / TNF-α / IFNγ / MCP-1 / GM-CSF / G-CSF: ↑: Induced; —: No change; ↓: Reduced; conditions: for effect on IFN-γ production / effect on IL-12p40 production / effect on IL-12p70 production / effect on IL-23 production / effect on MCP-1 production / effect on TNF-α production: vs DMSO control
# Description: Peripheral blood mononuclear cells (PBMCs) isolation: Whole blood was received through the Celgene Donor program after informed consent and donor deidentification. All volunteers were healthy and were not on any medications for at least 72 hours prior to the blood draw. Blood was collected in Sodium Heparin tubes and were used within 2 hours of the blood draw for PBMCs isolation. Before PBMCs isolation, whole blood was diluted 1:1 with PBS solution containing 2% FBS (2% FBS-PBS). 13 ml of Ficoll-Paque solution was loaded in the SepMate® tube and 25 ml of diluted blood was loaded on top of the Ficoll-Paque. Centrifugation at 1200 g for 15 minutes with the brake on for cell separation, after which isolated PBMCs were transferred into a new tube. PBMCs were washed with 2% FBS-PBS and centrifuged at 800 g 10 minutes. Pellets were resuspended in 2% FBS-PBS and filtered through a 40 μm cell strainer to obtain single-cell suspension. 3 ml of RBC lysis buffer were used to eliminate red blood cells in the isolated population. Isolated PBMCs were washed with 2% FBS-PBS and were resuspended in RPMI growth medium containing 10% FBS and antibiotics.
# For Example 6-11, PBMCs from 9 healthy donors were isolated and LPS-stimulated ex-vivo for IL-23, IL-12p40, IL-12p70, TNF-α, IFN-γ and MCP-1 cytokine analysis. PBMCs were plated in 96 well plate at a density of 200,000 cells per well in 200 μl of RPMI growth medium containing 10% FBS followed by treatment with DMSO and compounds. Each well received the same amount of DMSO, which is 0.3% v/v as final concentration. Series dilutions of compound treatment was performed according to Table 4 shown below. After two hours of compound treatment, LPS 100 ng/ml as final concentration was used as the stimulator. PBMCs were then incubated in a 37° C./5% CO2 incubator for 16 hours.
# After 16 hours incubation, supernatants were collected into new 96-well polypropylene plates and centrifuged at 4000 rpm for 10 minutes to get rid of cell debris. Cytokine production was measured by Luminex Bio-Plex Multiplex Immunoassay (Bio-Rad) according to the manufacturer's procedures. To ensure that supernatant level was within the range of the standard cytokine for the assay, samples were diluted 5 fold for IL-12p40 and 27-plex assays, and used neat for IL-23 assay.
# Data processing for PBMCs assays was done using Bio-plex manager, and raw data was exported to Excel template for the cytokine analysis. Data was plotted using GraphPad Prism 7.0 (GraphPad Software, Inc., La Jolla, CA) and expressed as % of DMSO control. Statistical analysis was performed using One Way ANOVA and Tukey's multiple comparisons test.
# To evaluate the combinatory effect of apremilast and BMS-986165, data from the two independent treatments were analyzed by comparing the combinatory response against the theoretical additive response of the two agents. The expected additive effect of two agents (A and B) was calculated using the fractional product method: (fu)A,B=(fu)A×(fu)B; where fu=fraction unaffected by treatment.
Structure (SMILES),Viability [2],G-CSF ([3]; LPS stimulated PBMCs),GM-CSF ([3]; LPS stimulated PBMCs),IFNα2 ([3]; LPS stimulated PBMCs),IFNγ ([3]; LPS stimulated PBMCs),IFSNβ ([3]; LPS stimulated PBMCs),IL-1ra ([3]; LPS stimulated PBMCs),IL-1β ([3]; LPS stimulated PBMCs),IL-2 ([3]; LPS stimulated PBMCs),IL-4 ([3]; LPS stimulated PBMCs),IL-5 ([3]; LPS stimulated PBMCs),IL-6 ([3]; LPS stimulated PBMCs),IL-10 ([3]; LPS stimulated PBMCs),IL-12p40 ([3]; LPS stimulated PBMCs),IL-12p70 ([3]; LPS stimulated PBMCs),IL-13 ([3]; LPS stimulated PBMCs),IL-15 ([3]; LPS stimulated PBMCs),IL-17 ([3]; LPS stimulated PBMCs),IL-22 ([3]; LPS stimulated PBMCs),IL-23 ([3]; LPS stimulated PBMCs),further results
"CCOc1cc([C@@H](CS(C)(=O)=O)N2C(=O)c3cccc(NC(C)=O)c3C2=O)ccc1OC [Apremilast, N-[2-[(1S)-1-(3-ethoxy-4-methoxyphenyl)-2-(methylsulfonyl)ethyl]-2,3-dihydro-1,3-dioxo-1H-isoindol-4-yl]acetamide]",—,↑,↓,—,↓,—,—,—,↓,—,—,—,↑,↓,↓,—,—,—,—,↓,"reduction in plaque psoriasis ([1]; achievable in some patients, just over 4 months of treatment): 75%; MCP-1 ([3]; LPS stimulated PBMCs): ↓; TNF-α ([3]; LPS stimulated PBMCs): ↓; effect on IL-12 ([3]; LPS stimulated PBMCs): inhibited; effect on IFN-γ production ([3]; LPS stimulated PBMCs): decreased; also recorded: reduced; effect on IL-12p40 production ([3]; LPS stimulated PBMCs): decreased; effect on IL-12p70 production ([3]; LPS stimulated PBMCs): decreased; effect on IL-23 production ([3]; LPS stimulated PBMCs): decreased; also recorded: inhibited; effect on MCP-1 production ([3]; LPS stimulated PBMCs): decreased; also recorded: reduced; effect on TNF-α production ([3]; LPS stimulated PBMCs): decreased; also recorded: inhibited"
"[2H]C([2H])([2H])NC(=O)c1nnc(NC(=O)C2CC2)cc1Nc1cccc(-c2ncn(C)n2)c1OC [BMS-986165, 6-(cyclopropanecarboxamido)-4-((2-methoxy-3-(1-methyl-1H-1,2,4-triazol-3-yl)phenyl)amino)-N-(methyl-d3)pyridazine-3-carboxamide]",—,↑,↑,—,↓,—,↓,—,—,—,—,—,—,↑,↑,↑,—,—,—,↑↑,"phase 2 clinical trial outcome ([1]; subjects with moderate to severe plaque psoriasis): positive results; increase of IL-23 compared to DMSO group ([3]; 0.2 μM-2 μM BMS-986165): 20 fold; MCP-1 ([3]; LPS stimulated PBMCs): ↓; TNF-α ([3]; LPS stimulated PBMCs): ↑; effect on IL-12 ([3]; LPS stimulated PBMCs): increased; increase of TNF-α ([3]; LPS stimulated PBMCs, BMS-986165 alone): 1.2-1.5 fold; effect on IFN-γ production ([3]; LPS stimulated PBMCs): decreased; also recorded: reduced; effect on IL-12p40 production ([3]; LPS stimulated PBMCs): increased; also recorded: induced; effect on IL-12p70 production ([3]; LPS stimulated PBMCs): increased; also recorded: induced; effect on IL-23 production ([3]; LPS stimulated PBMCs): induced; also recorded: increased; effect on MCP-1 production ([3]; LPS stimulated PBMCs): decreased; also recorded: reduced; effect on TNF-α production ([3]; LPS stimulated PBMCs): induced; also recorded: increased"

# From patent publication US20250235450A1, “COMBINATION THERAPIES COMPRISING APREMILAST AND TYK2 INHIBITORS” (Celgene Corporation, priority 2019, published 2025)
